Laboratory results reported in paper PMC6915999, “Simultaneous hydrolysis with lipase and fermentation of rapeseed cake for iturin A production by Bacillus amyloliquefaciens CX-20” (BMC Biotechnology, 2019).

System: lipase
Experiment: Stability of iturin A to lipase in fermentation broth
Assay type: in vitro ADME
Details: RSM (76.52 g/L) fermentation broth after 72 h fermentation; 5 U/mL lipase added vs no lipase; continued at 28 °C, 220 rpm; iturin A concentration at 0, 24, 48 and 72 h by HPLC (210 nm); triplicate; Fig. 5
Experimental: Iturin A was extracted according to a reported method. Briefly, 0.3 mL of the mixed fermentation broth was added into a 2 mL glass tube containing 1.2 mL of methanol, shaken well and incubated for 60 min. The mixture was centrifuged at 12,000 rpm for 20 min, and the supernatant was filtered through a 0.22 μm pore-size hydrophobic polytetrafluoroethylene (PTFE) type disposable syringe. The iturin A concentration was quantified using a Waters 2695 HPLC system equipped with an ACQUITY UPLC BEA C18 column (1.7 μm 2.1 × 100 mm, Waters, USA). A mixture of acetonitrile and 10 mM ammonium acetate (35:65, v/v) was used as the mobile phase at a flow rate of 0.3 mL/min, and the elution was monitored at 210 nm. The concentration of iturin A was analyzed and quantified using an authentic reference standard (Sigma Chemicals, St. Louis, MO, USA). The content of iturin A was measured using triplicate samples.
First, submerged fermentation were performed in 250 mL flasks with 20 mL medium, containing (per liter): 60 g glucose, 1 g K2HPO4·3H2O, 0.5 g MgSO4·7H2O, 0.005 g MnSO4·H2O, and 76.52 g RSM. After 72 h of fermentation, the fermentation broth was divided into two groups. Therein, one group supplemented with 5 U/mL lipase while the other without lipase addition. […] And the concentrations of iturin A at different time (0, 24, 48 and 72 h) were measured.

iturin A
stability of iturin A to excess lipase: almost no effect on the stability of iturin A
